Structures can show the parent of a compound that is named as a salt. Where two headings read alike, the source gives them in different places.
What was measured:
[1] = target: PDE 7 (phosphodiesterase VII) (Homo sapiens (Human), UniProt Q13946); assay: PDE 7 inhibiting effect (3H-cAMP hydrolysis, PDE 7 active fraction from MOLT-4 cells); assay type: biochemical; settings: PDE 7 fraction from MOLT-4 cells, 0.064 μM cAMP, 10 μM rolipram, 2 hours at 25° C., read-out: PDE7 IC50
Procedure: Methods for Evaluating the PDE 7 Inhibiting Effect
The PDE 7 (phosphodiesterase VII) inhibiting effect of the compounds of the present invention was performed by the following method, which was modified assay method described in Biochemical. Pharmacol. 48(6), 1219-1223 (1994). • (1) The active fraction of PDE 7 (phosphodiesterase VII) was obtained. That is, MOLT-4 (obtainable from ATCC as ATCC No. CRL-1582), which was cell line of human acute lymphoblastic lymphoma T cells, was incubated in RPMI1640 culture medium containing 10% fetal bovine serum to obtain 5×10^8 MOLT-4 cells. The cells were collected by centrifugation and suspended with 10 mL of buffer solution A [25 mM of tris-HCl, 5 mM of 2-mercaptoethanol, 2 mM of benzamidine, 2 mM of EDTA, 0.1 mM of 4-(2-aminoethyl)benzenesulfonyl hydrochloride; pH 7.5], then homogenized by Polytron® homogenizer. The homogenate were centrifuged under 25,000×G for 10 minutes at 4° C. The supernatant was separated and thus obtained supernatant was further centrifuged under 100,000×G for 60 minutes at 4° C., and then filtrated with 0.2 μm filter to obtain the soluble fraction. • (2) The obtained soluble fraction was filled in equilibrium HiTrap Q column (5 mL×2) with buffer solution A, and phosphodiesterase fractions were eluted by 300 mL of buffer solution A with linear gradient from 0 to 0.8 M NaCl concentration. 5 mL each of 60 eluents were collected, and each eluents were examined for cyclic AMP metabolic activities of phosphodiesterase. […] After the reaction, suspension of Sephadex®-QAE in 10 mM of HEPES-Na (pH 7.0) was added to the reaction mixture, and the mixture was left at rest for 5 minutes.

[2] = target: PDE 4 (phosphodiesterase IV); assay: PDE 4 inhibiting effect (3H-cAMP hydrolysis, PDE 4 active fraction from Balb/c mouse liver); assay type: biochemical; settings: PDE 4 fraction from Balb/c mice liver, 0.064 μM cAMP, 2 hours at 25° C.; read-out: PDE4 IC50
Procedure: Methods for Evaluating the PDE 4 Inhibiting Effect
The PDE 4 (phosphodiesterase IV) inhibiting effect of the compounds of the present invention was performed by the following method, which was modified assay method described in Biochemical. […] That is, the livers obtained from three Balb/c mice (male, 12 weeks: obtainable from CLEA Japan, Inc.) were suspended with 30 mL of buffer solution B [20 mM of bis-tris, 5 mM of 2-mercaptoethanol, 2 mM of benzamidine, 2 mM of EDTA, 0.1 mM of 4-(2-aminoethyl)benzenesulfonyl hydrochloride, 50 mM of sodium acetate; pH 6.5], then homogenized by Polytron® homogenizer. The homogenate were centrifuged under 25,000×G for 10 minutes at 4° C. The supernatant was separated and thus obtained supernatant was further centrifuged under 100,000×G for 60 minutes at 4° C., and then filtrated with 0.2 μm filter to obtain the soluble fraction. • (2) The obtained soluble fraction was filled in equilibrium DEAE sepharose column (1×10 cm) with buffer solution B, and phosphodiesterase fractions were eluted by 120 mL of buffer solution B with linear gradient from 0.05 to 1M sodium acetate concentration. 5 mL each of 24 eluents were collected, and each eluents were examined for cyclic AMP metabolic activities of phosphodiesterase. […] After the reaction, suspension of Sephadex®-QAE in 10 mM of HEPES-Na (pH 7.0) was added to the reaction mixture, and the mixture was left at rest for 5 minutes.

Chain of PDE 7 (phosphodiesterase VII) (Q13946 whole entry): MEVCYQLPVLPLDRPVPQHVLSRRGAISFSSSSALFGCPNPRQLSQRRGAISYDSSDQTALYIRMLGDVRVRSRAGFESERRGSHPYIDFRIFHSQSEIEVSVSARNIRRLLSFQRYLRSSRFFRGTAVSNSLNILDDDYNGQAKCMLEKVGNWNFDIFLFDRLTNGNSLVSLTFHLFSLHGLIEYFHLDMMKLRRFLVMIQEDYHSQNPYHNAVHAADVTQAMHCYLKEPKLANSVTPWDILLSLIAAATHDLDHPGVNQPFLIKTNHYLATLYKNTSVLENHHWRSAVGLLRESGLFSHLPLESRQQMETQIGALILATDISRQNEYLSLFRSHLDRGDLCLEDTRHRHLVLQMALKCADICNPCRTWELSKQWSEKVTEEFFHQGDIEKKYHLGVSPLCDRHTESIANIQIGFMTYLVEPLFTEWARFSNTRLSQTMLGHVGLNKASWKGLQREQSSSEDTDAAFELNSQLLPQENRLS

Cc1nn(C2CCCCC2)c2sc(C(=O)N[C@H]3C[C@@H]3CO)cc12 (racemic) [Example 340, (±)-1-Cyclohexyl-N-[trans-2-(hydroxymethyl)cyclopropyl]-3-methyl-1H-thieno[2,3-c]pyrazole-5-carboxamide]
IC50 [1]: 54 nM | IC50 [2]: 28000 nM

COc1cc(NC(=O)c2cc3c(C)nn(C4CCCCC4)c3s2)ccc1NC(C)=O [Example 10, N-[4-(Acetylamino)-3-methoxyphenyl]-1-cyclohexyl-3-methyl-1H-thieno[2,3-c]pyrazole-5-carboxamide]
IC50 [1]: 27 nM | IC50 [2]: 1800 nM

CC(=O)N1CCc2cc(NC(=O)c3cc4c(C)nn(C5CCCCC5)c4s3)ccc21 [Example 11, N-(1-Acetyl-2,3-dihydro-1H-indo-5-yl)-1-cyclohexyl-3-methyl-1H-thieno[2,3-c]pyrazole-5-carboxamide]
IC50 [1]: 19 nM | IC50 [2]: 2000 nM

CCOC(=O)Nc1ccc(NC(=O)c2cc3c(C)nn(C4CCCCC4)c3s2)cc1 [Example 12, Ethyl 4-{[(1-cyclohexyl-3-methyl-1H-thieno[2,3-c]pyrazol-5-yl)-carbonyl]amino}phenylcarbamate]
IC50 [1]: 53 nM | IC50 [2]: 5000 nM

Cc1nn(C2CCCCC2)c2sc(C(=O)Nc3ccc4c(c3)CCN4)cc12 [Example 14, 1-Cyclohexyl-N-(2,3-dihydro-1H-indol-5-yl)-3-methyl-1H-thieno[2,3-c]pyrazole-5-carboxamide HCl salt]
IC50 [1]: 88 nM | IC50 [2]: 3700 nM

CNC(=O)c1ccc(NC(=O)c2cc3c(C)nn(C4CCCCC4)c3s2)cc1 [Example 20]
IC50 [1]: 33 nM | IC50 [2]: > 30000 nM

CCC(=O)N1CCc2cc(NC(=O)c3cc4c(C)nn(C5CCCCC5)c4s3)ccc21 [Example 21, 1-Cyclohexyl-3-methyl-N-(1-propionyl-2,3-dihydro-1H-indol-5-yl)-1H-thieno-[2,3-c]pyrazole-5-carboxamide]
IC50 [1]: 84 nM | IC50 [2]: 2500 nM

Cc1nn(C2CCCCC2)c2sc(C(=O)Nc3ccc4c(c3)CCN4C(=O)C(C)C)cc12 [Example 23]
IC50 [1]: 83 nM | IC50 [2]: 4800 nM

Cc1nn(C2CCCCC2)c2sc(C(=O)Nc3ccc4c(c3)CCN4C(=O)C(C)(C)C)cc12 [Example 25, 1-Cyclohexyl-N-[1-(2,2-dimethylpropanoyl)-2,3-dihydro-1H-indol-5-yl]-3-methyl-1H-thieno[2,3-c]pyrazole-5-carboxamide]
IC50 [1]: 98 nM | IC50 [2]: 6500 nM

Cc1nn(C2CCCCC2)c2sc(C(=O)Nc3ccc4c(c3)CC(=O)N4)cc12 [Example 26, 1-Cyclohexyl-3-methyl-N-(2-oxo-2,3-dihydro-1H-indol-5-yl)-1H-thieno[2,3-c]pyrazole-5-carboxamide]
IC50 [1]: 44 nM | IC50 [2]: 3000 nM

CCNC(=O)c1ccc(NC(=O)c2cc3c(C)nn(C4CCCCC4)c3s2)cc1 [Example 28, 1-Cyclohexyl-N-{4-[(ethylamino)carbonyl]phenyl}-3-methyl-1H-thieno[2,3-c]pyrazole-5-carboxamide]
IC50 [1]: 50 nM | IC50 [2]: 30000 nM

Cc1nn(C2CCCCC2)c2sc(C(=O)Nc3ccc(C(=O)N4CCN(C)CC4)cc3)cc12 [Example 32, 1-Cyclohexyl-3-methyl-N-{4-[(4-methyl-1-piperazinyl)carbonyl]-phenyl}-1H-thieno[2,3-c]pyrazole-5-carboxamide]
IC50 [1]: 95 nM | IC50 [2]: 2500 nM

Cc1nn(C2CCCCC2)c2sc(C(=O)Nc3ccc(S(=O)(=O)N4CCN(C)CC4)cc3)cc12 [Example 36, 1-Cyclohexyl-3-methy-N-{4-[(4-methyl-1-piperazinyl)sulfonyl]-phenyl}-1H-thieno[2,3-c]pyrazole-5-carboxamide]
IC50 [1]: 40 nM | IC50 [2]: 25000 nM

COCCNC(=O)c1ccc(NC(=O)c2cc3c(C)nn(C4CCCCC4)c3s2)cc1 [Example 37, 1-Cyclohexyl-N-(4-{[(2-methoxyethyl)amino]carbonyl}phenyl)-3-methyl-1H-thieno[2,3-c]pyrazole-5-carboxamide]
IC50 [1]: 28 nM | IC50 [2]: 2000 nM

Cc1nn(C2CCCCC2)c2sc(C(=O)Nc3ccc(S(=O)(=O)N4CCN(CCO)CC4)cc3)cc12 [Example 79, 1-Cyclohexyl-N-(4-{[4-(2-hydroethyl)-1-piperazinyl]sulfonyl}-phenyl)-3-methyl-1H-thieno[2,3-c]pyrazole-5-carboxamide]
IC50 [1]: 60 nM

Cc1nn(C2CCCCC2)c2sc(C(=O)Nc3ccc(N4CCC(O)CC4)cc3)cc12 [Example 114]
IC50 [1]: 21 nM

Cc1nn(C2CCCCC2)c2sc(C(=O)Nc3ccc(N4CCC(O)CC4)c(F)c3)cc12 [Example 159, 1-Cyclohexyl-N-[3-fluoro-4-(4-hydroxy-1-piperidinyl)phenyl]-3-methyl-1H-thieno[2,3-c]pyrazole-5-carboxamide]
IC50 [1]: 35 nM

CNC(=O)[C@H]1CC[C@H](NC(=O)c2cc3c(C)nn(C4CCCCC4)c3s2)CC1 [Example 237, 1-Cyclohexyl-3-methyl-N-{4-[(methylamino)carbonyl]cyclohexyl}-1H-thieno[2,3-c]pyrazole-5-carboxamide]
IC50 [1]: 7.8 nM

Cc1nn(C2CCCCC2)c2sc(C(=O)NC3CCN(S(=O)(=O)N(C)C)CC3)cc12 [Example 240, 1-Cyclohexyl-N-{1-[(dimethylamino)sulfonyl]-4-piperidinyl}-3-methyl-1H-thieno[2,3-c]pyrazole-5-carboxamide]
IC50 [1]: 41 nM

Cc1nn(C2CCCCC2)c2sc(C(=O)N[C@H]3CCN(C(=O)N(C)C)C3)cc12 [Example 246, 1-Cyclohexyl-N-{(3S)-1-[(dimethylamino)carbonyl]pyrrolidinyl}-3-methyl-1H-thieno[2,3-c]pyrazole-5-carboxamide HCl salt]
IC50 [1]: 51 nM

Cc1nn(C2CCCCC2)c2sc(C(=O)N[C@@H]3CCN(C(=O)N(C)C)C3)cc12 [Example 323, 1-Cyclohexyl-N-{(3R)-1-[(dimethylamino)carbonyl]pyrrolidinyl}-3-methyl-1H-thieno[2,3-c]pyrazole-5-carboxamide HCl salt]
IC50 [1]: 71 nM

Cc1nn(C2CCCCC2)c2sc(C(=O)Nc3ccc(N4CCC(O)CC4)c(F)c3)cc12 [Example 365, 1-cyclohexyl-N-[3-fluoro-4-(4-hydroxy-1-piperidinyl)phenyl]-3-methyl-1H-thieno[2,3-c]pyrazole-5-carboxamide dimethanesulfonate]
IC50 ([1]; dimethanesulfonate): 41 nM

Cc1nn(C2CCCCC2)c2sc(C(=O)Nc3ccc(N4CCC(O)CC4)c(F)c3)cc12 [Example 366, 1-Cyclohexyl-N-[3-fluoro-4-(4-hydroxy-1-piperidinyl)phenyl]-3-methyl-1H-thieno[2,3-c]pyrazole-5-carboxamide p-toluenesulfonate]
IC50 ([1]; p-toluenesulfonate): 49 nM

Cc1nn(C2CCCCC2)c2sc(C(=O)Nc3ccc(N4CCC(O)CC4)cc3)cc12 [Example 367, 1-Cyclohexyl-N-[4-(4-hydroxy-1-piperidinyl)phenyl]-3-methyl-1H-thieno[2,3-c]pyrazole-5-carboxamide methanesulfonate]
IC50 ([1]; methanesulfonate): 20 nM

Cc1nn(C2CCCCC2)c2sc(C(=O)Nc3ccc(N4CCC(O)CC4)cc3)cc12 [Example 368, 1-Cyclohexyl-N-[4-(4-hydroxy-1-piperidinyl)phenyl]-3-methyl-1H-thieno[2,3-c]pyrazole-5-carboxamide p-toluenesulfonate]
IC50 ([1]; p-toluenesulfonate): 26 nM

Cc1nn(C2CCCCC2)c2sc(C(=O)Nc3ccc(CN4CCOCC4)nc3)cc12 [Example 412, 1-Cyclohexyl-3-methyl-N-[6-(4-morpholinylmethyl)-3-pyridinyl]-1H-thieno[2,3-c]pyrazole-5-carboxamide methanesulfonate]
IC50 [1]: 43 nM

From patent US8901315B2, “Thienopyrazole derivative having PDE7 inhibitory activity” (Daiichi Sankyo Company, Limited, priority 2004, dated 2014)
